According to PMC3699461, “Ground State Destabilization by Anionic Nucleophiles Contributes to the Activity of Phosphoryl Transfer Enzymes” (PLoS Biology, 2013):
Several values for one entry are separate records, joined by “and”; a condition that tells them apart may be missing. Identical values can stand only once. Like-named read-outs stand apart in the source and are kept apart here.

Key:
[1] = cited from earlier work
[2] = ionic strength I = 0.1 for the value 6.9; cited from earlier work
S102G/R166S AP [3] = target: T1, S102G/R166S AP (Escherichia coli, UniProt P00634, R188S/S124G); conditions: fit of Figure 4B, two-state model
Experimental: (§4) After this first incubation, trace ^32Pi was added and the sample was incubated further to allow ^32Pi binding to complete.

WT AP [4] = target: T2, WT AP (Escherichia coli, UniProt P00634); conditions: cited from earlier work
WT AP [5] = target: T2, WT AP
Experimental: as §4
A competition-binding assay at pH 8.0 for WT AP (see Materials and Methods for assay details) under the standard buffer conditions.

R166S AP = R166S AP (Escherichia coli, UniProt P00634, R188S); conditions: fit of Figure 4B, two-state model
Experimental: The tungstate affinity for R166S AP was determined by inhibition of pNPP hydrolysis as was done previously with WT AP [20], but under the standard buffer conditions used in this work. A range of tungstate concentrations was used from at least 5-fold below and above the inhibition constant at each pH.

S102G AP = S102G AP (Escherichia coli, UniProt P00634, S124G); conditions: for trianion versus dianion differential affinity: S102G AP, Table 2
Description: (§1) The retentate is expected to contain both free and bound ^32Pi. […] Scintillation counting of both the filtrate and retentate was used to measure the concentrations of free and bound ^32Pi at the various AP concentrations, and the fraction ^32Pi bound dependence on the AP concentration was used to determine dissociation constants using a modified binding equation, f bound = (C)×([AP]/([AP]+K [drawing 148] ))+(1–C), where C allows for background levels of apparent binding in the absence of protein.
(§2) To measure the uptake of ^32Pi by the AP sample, the fraction of ^32Pi bound was measured over time starting just after the addition of ^32Pi to the AP samples.

S102G/R166S AP [6] = target: T1, S102G/R166S AP; conditions: Table 2
Description: (§3) The following buffers were used over the indicated pH ranges: NaAcetate (4.5–5.5), NaMES (5.5), NaMaleate (6.0–6.5), Tris•HCl (7.0–7.5), NaMOPS (7.0–8.0), NaCHES (8.5–9.0), and NaCAPS (10–10.5).
as §1, §2

[7] = target: AP with mutation of Arg166; conditions: read-out: Pi binding constant of Arg166 mutants; pH 8.0; cited from earlier work
WT AP [8] = target: T2, WT AP; conditions: 0.1–10 µM WT AP, standard buffer
Description: as §3, §1, §2

WT Stp1 = WT Stp1 (Schizosaccharomyces pombe, UniProt P41893); conditions: pH 6.0, protein up to 500 µM
Description: The buffer conditions, pH, and temperature were the same as those for the WT Stp1 kinetic inhibition assays (Figure S14A).
(EPS) Click here for additional data file.

T2 sequence (P00634 22-471): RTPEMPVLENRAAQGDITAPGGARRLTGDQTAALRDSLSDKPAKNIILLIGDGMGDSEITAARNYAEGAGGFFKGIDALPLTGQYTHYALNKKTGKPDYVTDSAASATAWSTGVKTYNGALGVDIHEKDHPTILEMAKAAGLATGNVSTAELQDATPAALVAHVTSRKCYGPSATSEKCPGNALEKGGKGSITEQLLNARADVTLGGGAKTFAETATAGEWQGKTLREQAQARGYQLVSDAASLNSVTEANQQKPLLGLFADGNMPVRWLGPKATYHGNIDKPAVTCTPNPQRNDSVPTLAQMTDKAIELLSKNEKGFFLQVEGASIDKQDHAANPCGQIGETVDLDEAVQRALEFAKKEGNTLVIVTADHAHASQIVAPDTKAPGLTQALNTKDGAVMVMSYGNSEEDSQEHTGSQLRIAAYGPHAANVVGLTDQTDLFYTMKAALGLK
Chain of S102G AP (P00634 23-471 S124G): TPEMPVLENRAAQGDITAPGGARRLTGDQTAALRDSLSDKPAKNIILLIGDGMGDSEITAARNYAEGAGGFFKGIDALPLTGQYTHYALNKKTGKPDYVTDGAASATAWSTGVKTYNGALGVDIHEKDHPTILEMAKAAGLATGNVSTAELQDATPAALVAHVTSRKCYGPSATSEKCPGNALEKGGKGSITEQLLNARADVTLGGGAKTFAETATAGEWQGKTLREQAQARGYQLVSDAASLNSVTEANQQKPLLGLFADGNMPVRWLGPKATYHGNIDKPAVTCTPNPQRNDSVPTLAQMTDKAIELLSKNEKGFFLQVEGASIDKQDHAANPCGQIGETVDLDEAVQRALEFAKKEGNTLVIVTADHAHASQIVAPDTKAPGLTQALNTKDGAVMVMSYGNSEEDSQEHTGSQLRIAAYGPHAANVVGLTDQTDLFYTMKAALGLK
T1 sequence (P00634 23-471 S124G/R188S): as the sequence (P00634 23-471 S124G) above, with R166S counted along it
Chain of WT Stp1 (P41893 whole entry): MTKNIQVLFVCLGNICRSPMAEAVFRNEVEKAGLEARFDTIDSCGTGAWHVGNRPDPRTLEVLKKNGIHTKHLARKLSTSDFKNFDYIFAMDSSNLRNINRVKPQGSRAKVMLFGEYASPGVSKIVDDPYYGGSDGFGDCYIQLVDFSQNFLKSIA
Chain of R166S AP (P00634 23-471 R188S): as the sequence (P00634 23-471 S124G) above, with G102S, R166S counted along it

Nc1nc2c(ncn2[C@@H]2O[C@H](COP(=O)(O)OP(=O)(O)OP(=O)(O)O)[C@@H](O)[C@H]2O)c(=O)[nH]1 [GTP]
kuncat, uncatalyzed hydrolysis ([1]; 25 °C, 44 of the supplement): ~ 5×10^-11 M^-1s^-1

COP(=O)(O)O [methyl phosphate dianion, methyl phosphate]
kuncat, uncatalyzed hydrolysis ([1]; 25 °C, 44 of the supplement): ~ 4×10^-22 M^-1s^-1 | kuncat, uncatalyzed hydrolysis [1]: ~4e-22 M⁻¹ s⁻¹

[O]=[W](=[O])([O-])[O-] [tungstate]
solution pKa [2]: ~4 | pH-independent dissociation constant for tungstate binding (S102G/R166S AP [3]): 890±90 µM | pH-independent dissociation constant for tungstate dianion binding (WT AP [4]; kinetic inhibition, solid line, data from ref 20): 0.57±0.11 µM | Kd (WT AP [4]; read-out: dissociation constant for tungstate binding, pH 8.0): 1.1 µM | pH-independent dissociation constant for tungstate dianion binding (WT AP [5]; equilibrium-binding assay via competition with 32Pi, dashed line): 2.06±0.48 µM | Kd (WT AP [5]; read-out: dissociation constant for tungstate binding, pH 8.0, standard buffer): 0.9 ± 0.2 µM | pH-independent dissociation constant for tungstate binding (R166S AP): 170±25 µM

Nc1ncnc2c1ncn2[C@@H]1O[C@H](COP(=O)(O)OP(=O)(O)OP(=O)(O)O)[C@@H](O)[C@H]1O [ATP]
kuncat, uncatalyzed hydrolysis ([1]; 25 °C, 44 of the supplement): ~ 5×10^-11 M^-1s^-1

O=P(O)(O)O [PO4^3-]
trianion versus dianion differential affinity (S102G AP): 10^7 fold | trianion versus dianion differential affinity (S102G AP; listed as PO): ~ 10^7 fold | destabilization of Pi trianion binding by the Ser102 alkoxide (S102G AP; WT AP versus S102G AP): ≥ 10^8 fold | trianion versus dianion differential affinity (S102G/R166S AP [6]): 4.3×10^5 fold

O=P(O)(O)O [Pi, inorganic phosphate]
Ki [7]: 460 µM and 640 µM | observed 32Pi uptake rate constant kobs (WT AP [8]): ≥ 0.03 s⁻¹ | Pi binding in the equilibrium-binding assay (WT Stp1): No significant Pi binding
